# Data as given in article PMC10648927, “Examining the activity of cefepime-taniborbactam against Burkholderia cepacia complex and Burkholderia gladioli isolated from cystic fibrosis patients in the United States” (Antimicrobial Agents and Chemotherapy, 2023).
# How the values were obtained:
# Set-up in all cases: agar dilution MIC, growth inhibition of clinical Burkholderia isolates
# [1] = test system: T1, B. cenocepacia AU12571; assay: microbe, parasite or virus in culture; conditions: Burkholderia cenocepacia, AU12571
# T1 construct: AU12571
# Source text: (§1) We evaluated the activity of cefepime-taniborbactam against a panel of 140 Bcc clinical isolates (i.e., species ambifaria, arboris, cenocepacia, cepacia, contaminans, diffusa, dolosa, multivorans, pseudomultivorans, pyrrocinia, seminalis, stabilis, ubonensis, and vietnamiensis) and 10 B. gladioli from the Burkholderia cepacia Research Laboratory and Repository (University of Michigan) ([22], [25], [31]) (Supplementary Material, Tables S1 and S2). K. pneumoniae ATCC 700603 carrying bla SHV-18 and K. pneumoniae ATCC BAA-1705 harboring bla KPC strains were used as controls for β-lactam and β-lactamase inhibitor integrity; all controls tested within the anticipated quality control ranges (Table S3). Minimum inhibitory concentration (MIC) results were interpreted using Clinical Laboratory Standards Institute (CLSI) breakpoints, where available ([32]). […] An alternative cefepime-taniborbactam provisional susceptible breakpoint of ≤16 µg/mL is supported by in vivo efficacy data from neutropenic murine infection models (thigh, complicated urinary tract, and lung) ([15] [–] [17]) and data from safety and pharmacokinetics studies in human volunteers ([33], [34]). The cefepime-taniborbactam antimicrobial activity was compared to cefepime, meropenem, meropenem-vaborbactam, and levofloxacin, to data published for first-line agents (e.g., ceftazidime and trimethoprim-sulfamethoxazole) and to those recommended by the CLSI for clinical testing (e.g., minocycline) against the Bcc and B. gladioli panel ([22], [32]). Of note, the MICs of all these agents were determined by the agar dilution method, which alongside broth microdilution, are recommended by the CLSI to assess the antimicrobial susceptibility of Bcc isolates ([32]).
# [2] = test system: T2, B. cenocepacia AU14093; assay: microbe, parasite or virus in culture; conditions: Burkholderia cenocepacia, AU14093
# T2 construct: AU14093
# Source text: as §1
# [3] = test system: T3, B. cenocepacia AU141094; assay: microbe, parasite or virus in culture; conditions: Burkholderia cenocepacia, AU141094
# T3 construct: AU141094
# Source text: as §1
# [4] = test system: T4, B. cenocepacia AU14381; assay: microbe, parasite or virus in culture; conditions: Burkholderia cenocepacia, AU14381
# T4 construct: AU14381
# Source text: as §1
# [5] = test system: T5, B. cenocepacia AU20545; assay: microbe, parasite or virus in culture; conditions: Burkholderia cenocepacia, AU20545
# T5 construct: AU20545
# Source text: as §1
# [6] = test system: T6, B. cenocepacia AU20902; assay: microbe, parasite or virus in culture; conditions: Burkholderia cenocepacia, AU20902
# T6 construct: AU20902
# Source text: as §1
# [7] = test system: T7, B. cenocepacia AU28111; assay: microbe, parasite or virus in culture; conditions: Burkholderia cenocepacia, AU28111
# T7 construct: AU28111
# Source text: as §1
# [8] = test system: T8, B. contaminans AU21811; assay: organism not typed
# T8 construct: AU21811
# Source text: as §1
# [9] = test system: T9, B. diffusa AU19637; assay: organism not typed
# T9 construct: AU19637
# Source text: as §1
# [10] = test system: T10, B. dolosa AU29021; assay: microbe, parasite or virus in culture; conditions: Burkholderia dolosa, AU29021
# T10 construct: AU29021
# Source text: as §1
# [11] = test system: T11, B. dolosa AU29985; assay: microbe, parasite or virus in culture; conditions: Burkholderia dolosa, AU29985
# T11 construct: AU29985
# Source text: as §1
# [12] = test system: T12, B. gladioli AU16341; assay: organism not typed
# T12 construct: AU16341
# Source text: as §1
# [13] = test system: T13, B. gladioli AU27927; assay: organism not typed
# T13 construct: AU27927
# Source text: as §1
# [14] = test system: T14, B. gladioli AU29223; assay: organism not typed
# T14 construct: AU29223
# Source text: as §1
# [15] = test system: T15, B. multivorans AU10047; assay: microbe, parasite or virus in culture; conditions: Burkholderia multivorans, AU10047
# T15 construct: AU10047
# Source text: as §1
# [16] = test system: T16, B. multivorans AU15954; assay: microbe, parasite or virus in culture; conditions: Burkholderia multivorans, AU15954
# T16 construct: AU15954
# Source text: as §1
# [17] = test system: T17, B. multivorans AU23995; assay: microbe, parasite or virus in culture; conditions: Burkholderia multivorans, AU23995
# T17 construct: AU23995
# Source text: as §1
# [18] = test system: T18, B. multivorans AU26250; assay: microbe, parasite or virus in culture; conditions: Burkholderia multivorans, AU26250
# T18 construct: AU26250
# Source text: as §1
# [19] = test system: T19, B. multivorans AU28069; assay: microbe, parasite or virus in culture; conditions: Burkholderia multivorans, AU28069
# T19 construct: AU28069
# Source text: as §1
# [20] = test system: T20, B. vietnamiensis AU3578; assay: microbe, parasite or virus in culture; conditions: Burkholderia vietnamiensis, AU3578
# T20 construct: AU3578
# Source text: as §1
# [21] = test system: T21, B. vietnamiensis AU3997; assay: microbe, parasite or virus in culture; conditions: Burkholderia vietnamiensis, AU3997
# T21 construct: AU3997
# Source text: as §1
# [22] = test system: T22, Burkholderia cepacia complex Bcc Indeterminate AU14915; assay: microbe, parasite or virus in culture; conditions: Burkholderia cepacia
# T22 construct: AU14915
# Source text: as §1
SMILES,MIC [1],MIC [2],MIC [3],MIC [4],MIC [5],MIC [6],MIC [7],MIC [8],MIC [9],MIC [10],MIC [11],MIC [12],MIC [13],MIC [14],MIC [15],MIC [16],MIC [17],MIC [18],MIC [19],MIC [20],other results
C[C@H]1COc2c(N3CCN(C)CC3)c(F)cc3c(=O)c(C(=O)O)cn1c23 [levofloxacin],8 µg/mL,> 32 µg/mL,> 32 µg/mL,> 32 µg/mL,2 µg/mL,4 µg/mL,4 µg/mL,8 µg/mL,2 µg/mL,4 µg/mL,> 32 µg/mL,4 µg/mL,1 µg/mL,0.5 µg/mL,8 µg/mL,2 µg/mL,4 µg/mL,2 µg/mL,4 µg/mL,8 µg/mL,MIC [21]: 8 µg/mL; MIC [22]: 16 µg/mL
CO/N=C(\C(=O)N[C@@H]1C(=O)N2C(C(=O)[O-])=C(C[N+]3(C)CCCC3)CS[C@H]12)c1csc(N)n1 [cefepime],16 µg/mL,> 32 µg/mL,> 32 µg/mL,32 µg/mL,8 µg/mL,16 µg/mL,32 µg/mL,> 32 µg/mL,32 µg/mL,> 32 µg/mL,> 32 µg/mL,> 32 µg/mL,8 µg/mL,16 µg/mL,32 µg/mL,8 µg/mL,> 32 µg/mL,4 µg/mL,8 µg/mL,> 32 µg/mL,MIC [21]: 8 µg/mL; MIC [22]: > 32 µg/mL
C[C@@H](O)[C@H]1C(=O)N2C(C(=O)O)=C(S[C@@H]3CN[C@H](C(=O)N(C)C)C3)[C@H](C)[C@H]12 [meropenem],2 µg/mL,8 µg/mL,16 µg/mL,4 µg/mL,2 µg/mL,4 µg/mL,4 µg/mL,16 µg/mL,2 µg/mL,8 µg/mL,> 32 µg/mL,8 µg/mL,1 µg/mL,1 µg/mL,16 µg/mL,4 µg/mL,8 µg/mL,2 µg/mL,4 µg/mL,4 µg/mL,MIC [21]: 1 µg/mL; MIC [22]: 16 µg/mL
